Reference: patent US20200270309A1, “MALEIMIDE GROUP-MODIFIED ANGIOGENESIS INHIBITOR HM-1 AND USE THEREOF” (NANJING ANJI BIOLOGICAL TECHNOLOGY CO., LTD, priority 2017, published 2020)
Marks after values point to notes of the source that are not given here.

What was measured:
[1] = tested on: splenic lymphocytes; experiment: Proliferation of splenic lymphocytes in mice (ConA, MTT); format: cell-based; conditions: dose 20 μM (Dex group), mouse splenic lymphocytes, 48 h
Protocol: Spleens of mice were taken out under aseptic conditions, washed with blank 1640 culture medium 3 times, ground with a 5 mL syringe core, filtered with a 200-mesh sieve, made into a single cell suspension. The suspension was centrifuged (1000 rpm×5 min), and supernatant was removed. Red blood cells were lysed by Tris-NH4Cl, and placed in ice water bath for 4 min and centrifuged (1000 rpm×5 min). The supernatant was removed, and the cells were washed twice with sterile PBS. Finally, RPMI 1640 culture solution (5 mL) containing 10% calf serum was added to suspend the cells. The cells were counted and the cell concentration was adjusted to 5×10^6 cells/mL, and the cells were cultured in a 96-well culture plate.
Blank control group, concanavalin A (ConA) group and dexamethasone (Dex) group were set in the experiment, and polypeptide X1-X90 groups were set as test groups. After 100 μL of splenic lymphocytes suspension per well was added into each group, 100 μL of blank 1640 culture solution was added into the blank control group, ConA was added into the ConA group, Dex was added into the Dex group, and ConA was added into the test groups on the basis of adding different concentrations of polypeptides X1-X90. The cells were static cultured at 37° C. in a cell incubator for 48 h. After the cultivation was completed, 20 μL of MTT was added to each well, and the cultivation was continued for 4 h. Finally, all the solutions in each well were discarded. 100 μL DMSO was added to each well and shaken, and the OD value at 570 nm was detected with a microplate reader. Five parallel experiments were set in each well.

[2] = tested on: IL-1β production by mouse peritoneal macrophages; experiment: IL-1β production by mouse peritoneal macrophages (ELISA); format: cell-based; conditions: dose 20 μM
Protocol: Mice were injected intraperitoneally with 1 mL of broth culture medium (containing 6% of starch). Three days later, mice peritoneal macrophages were taken aseptically and washed twice with 1640 culture medium, and the cell concentration was adjusted to 2×10^6 cells/mL. The solutions were injected into 24-well culture plates at 1 mL per well. The cells were incubated in a cell incubator for 3 h and vibrated once every 30 min to make the cells fully adhere to the wall. Then, the cells were washed twice with a culture solution to remove non-adhered cells. PBS was added to the blank group, positive drug Dex was added to the positive group, no drug was added to the model group, and polypeptides X1-X90 with low, medium and high concentrations were added to the test groups; and the cells were continuously cultured for 48 h after administration, and then centrifuged at 1000 r/min for 15 min. The supernatant was collected as a sample to be tested for IL-1β activity.

[3] = tested on: carrageenan-induced toe swelling; experiment: Carrageenan-induced toe swelling in rats; format: in vivo; conditions: SD rats, Dex 10 mg/kg once a day for 3 d
Protocol: The rats were injected once a day, and the model group was given the same volume of normal saline for 3 d and fed normally. […] The foot swelling degree was calculated according to the following formula: foot swelling degree (mL)=foot volume after inflammation-foot volume before inflammation. The number of milliliters of overflow liquid was recorded (method: a ballpoint pen is used to circle the protruding point of the right joint as a measurement mark, and the right hind feet of each rat are sequentially placed into the volume measurer, so that the hind limbs are exposed outside the barrel, and the immersion depth is at the coincidence of the circle and the liquid level. After the foot enters the liquid, the liquid level rises, and the volume of overflow liquid is the volume of the right hind foot of the rat, and the normal volume of the right hind foot of each rat is measured in sequence).

[4] = tested on: Head and neck cancers tumor cell line; experiment: MTT proliferation inhibition, head and neck cancers; format: cell-based, human; conditions: 48 h, mean ±SD
[5] = tested on: Brain tumor cell line; experiment: MTT proliferation inhibition, brain tumor; format: cell-based, human; conditions: 48 h, mean ±SD
[6] = tested on: Thyroid cancer tumor cell line; experiment: MTT proliferation inhibition, thyroid cancer; format: cell-based, human; conditions: 48 h, mean ±SD
[7] = tested on: Esophageal cancer tumor cell line; experiment: MTT proliferation inhibition, esophageal cancer; format: cell-based, human; conditions: 48 h, mean ±SD
[8] = tested on: Pancreatic cancer tumor cell line; experiment: MTT proliferation inhibition, pancreatic cancer; format: cell-based, human; conditions: 48 h, mean ±SD
[9] = tested on: xylene-induced ear swelling; experiment: Xylene-induced mouse ear swelling; format: in vivo; conditions: Kunming mice, positive control, dose 200 mg/kg, once a day for 5 days
Protocol: Kunming mice were taken, a normal saline group was taken as a blank control group, an aspirin group (200 mg/kg) was taken as a positive control group, and X1-X90 administration groups were taken as test groups. The mice were injected once a day for 5 consecutive days. The blank control group was given an equal volume of normal saline. One hour after the last administration, 0.05 mL of xylene was applied to both sides of the right ear of each mouse to cause inflammation, while no drug was applied to the left ear as a normal ear. Two hours later, the mice were put to death by dislocation. Two ears were cut along the auricle. Ear pieces were taken with a puncher and weighed, and the swelling degree and the swelling rate were calculated. Swelling degree=right ear piece weight-left ear piece weight, swelling rate=(swelling degree/left ear piece weight)*100%. Statistical t-test was conducted on the experimental results. *P<0.05 indicates significant difference, and **P<0.01 indicates extremely significant difference.

[10] = tested on: HUVECs; experiment: Transwell migration inhibition on HUVECs; format: cell-based, human; conditions: dose 0.2 μM
[11] = tested on: human retinal capillary endothelial cells (HRCECs); experiment: MTT proliferation inhibition on HRCECs; format: cell-based; conditions: 48 h, dose 0.5 μM (positive control)
Protocol: An MTT method was used to detect the inhibitory activity of the angiogenesis inhibitor polypeptide on proliferation of HRCECs. HRCECs were digested and collected with trypsin after being cultured in an incubator at 37° C. with 5% CO2 to a density of 90% or more. The cells were resuspended with a culture solution and counted under a microscope, the cell concentration was adjusted to 3.0×10^4 cells/mL, and the cell suspension was inoculated into a 96-well plate at 100 μL/well, and cultured overnight in an incubator at 37° C. with 5% CO2. After the cells were completely adhered to the wall, cells with the addition of the angiogenesis inhibitor polypeptide were used as administration groups, cells with the addition of Avastin were used as a positive control group, and cells with the addition of culture solution without any drugs were used as a blank control group. The cells were diluted to respective predetermined concentrations with the culture solution. The diluent were added into 96-well plates respectively at 100 μL per well, and the cells were cultured at 37° C. for 48 h in an incubator with 5% CO2. 20 μL of 5 mg/mL MTT was added into each well of the 96-well plate, and the cultivation was continued for 4 h. The culture medium was removed, and 100 μL of DMSO was added to each well for dissolution. The absorbance was measured at a detection wavelength of 570 nm and a reference wavelength of 630 nm using a microplate reader, and the PIR was calculated by the formula as follows:
PIR (%)=1−administration group/negative group
The experiment was repeated independently three times. The results were expressed as mean±SD, and statistical T test was conducted. *P<0.05 indicates significant difference, and **P<0.01 indicates extremely significant difference.

Molecule: C[C@@H]1C[C@H]2[C@@H]3CCC4=CC(=O)C=C[C@]4(C)[C@@]3(F)[C@@H](O)C[C@]2(C)[C@@]1(O)C(=O)CO [Dex]
- A570 nm/A630 nm [1]: 0.3918 ± 0.1127
- Inhibition rate (%) [1]: 52.65%
- Inhibition rate ([2]; IL-1β production, vs model group): 62.95%
- IL-1β ([2]; mouse peritoneal macrophages, 48 h, ELISA): 352.06 ± 17.29 pg/mL
- Swelling degree 1 h ([3]; 1 h after carrageenan): 0.22 ± 0.10 mg
- Swelling degree 3 h ([3]; 3 h after carrageenan): 0.24 ± 0.11 mg
- Swelling degree 5 h ([3]; 5 h after carrageenan): 0.29 ± 0.11 mg
- Swelling degree 7 h ([3]; 7 h after carrageenan): 0.23 ± 0.08 mg

Molecule: CC(=O)O[C@@]12CO[C@@H]1C[C@H](O)[C@@]1(C)C(=O)[C@H](O)C3=C(C)[C@@H](OC(=O)[C@H](O)[C@@H](NC(=O)OC(C)(C)C)c4ccccc4)C[C@@](O)([C@@H](OC(=O)c4ccccc4)[C@H]21)C3(C)C [Docetaxel]
- PIR (%) [4]: 55.66%
- PIR (%) [5]: 70.69%
- PIR (%) [6]: 73.75%
- PIR (%) [7]: 53.43%
- PIR (%) [8]: 45.92%

Molecule: CC(=O)Oc1ccccc1C(=O)O [Aspirin]
- Swelling degree (mg) [9]: 3.08 ± 0.31** mg
- inhibition at 200 mg/kg ([9]; Mus musculus, 120 h, read-out: Inhibition rate (%)): 51%

Molecule: Avastin: positive control [reference compound]
- Inhibition rate (%) ([10]; HUVEC migration vs blank control): 60.92%
- Cell migration number (Mean ± SD) ([10]; HUVECs, transwell, 24 h): 418.92 ± 61.42
- Cell migration number (Mean ± SD) ([10]; 24 h): 418.92 ± 61.42
- Inhibition rate (migration) ([10]; 24 h): 60.92%
- Inhibition rate (%) [11]: 67.30%**
- A570 nm-A630 nm ([11]; mean±SD): 0.4325 ± 0.01108
